According to patent publication US20190211317A1, “PEPTIDES AND NANOPARTICLES FOR INTRACELLULAR DELIVERY OF GENOME-EDITING MOLECULES” (Aadigen, LLC, priority 2016, published 2019):
“And” between values parts separate entries of the source, which are not always exact repeats. Equal values may be shown once. Read-outs that look alike come from different tables or passages of the source.

How the values were obtained:
[1] = CPP/CAS9 and CPP/CAS9:gRNA particle size, polydispersity, zeta potential (Zetasizer 4); assay type: physicochemical
Method: The CPP/CAS9 and CPP/CAS9/sgRNA particles were further characterized; the mean size, polydispersity and zeta potential were measured with Zetasizer 4 apparatus (Malvern Ltd). […] The mean size and the polydispersity of the CCP/CAS9 and CCP/CAS9:gRNA complexes were determined at 25° C. for 3 min per measurement and zeta potential was measured with Zetasizer 4 apparatus (Malvern Ltd).

[2] = system: endogenous EMX1 gene in primary human T cells; assay: EMX1 editing in primary human T cells with CAS9 mRNA, protein or plasmid plus gRNA (T7E1); assay type: cell-based; conditions: CAS9-expressing plasmid and gRNA; day 3
Method: CPP/CAS9 mRNA/gRNA complexes were formed by mixing the CAS9 mRNA (0.5 μg) and gRNA (5 μg) with CPP at a 20:1 molar ratio of CPP to nucleic acid (mRNA+gRNA) and incubating for 30 min at 37° C. prior to cell transfection. CPP/plasmid/gRNA complexes were formed by mixing CAS9 expressing plasmid (Addgene MLM3639-Plasmid #42252) (0.5 μg) and gRNA (5 μg) with CPP at a 20:1 molar ratio of CPP to nucleic acid (plasmid+gRNA) and incubating for 30 min at 37° C. prior to cell transfection. CPP/CAS9/gRNA complexes were formed by mixing preloaded CAS9/gRNA complexes (2.5 μg/5 μg CAS9/gRNA) with CPP at a 20:1 molar ratio of CPP to complex and incubating for 30 min at 37° C. prior to cell transfection.
T cells were transfected according to the protocol for suspension cells described in Example 13a. Lipofectamine 2000- and RNAiMAX-mediated delivery methods (Invitrogen Thermo Fisher France) were included as controls. EMX1 gene editing was analyzed at day 3, day 6, and day 10 by T7E1 assay and quantified using a Fragment Analyzer System.

[3] = system: endogenous EMX1, AAVS and HPRT genes in U2OS and Human (H9) embryonic stem cells; assay: Delivery of multiple RGEN:gRNA complexes: EMX1, AAVS, HPRT editing in U2OS and H9 ES cells (T7E1); assay type: cell-based
Method: RNAiMAX delivery method was used as a positive control.
U2OS cells were treated as described previously. H9 embryonic stem cells were cultured in Dulbecco's modified Eagle's medium with 4 mM L-glutamine adjusted to contain 1.5 g/L sodium bicarbonate and 4.5 g/L glucose and supplemented with 0.1 mM 2-mercaptoethanol, 85%; and 15% ES-Cell Qualified fetal bovine serum. […] CAS9-induced double-strand break formation followed by repair through NHEJ was analyzed 72 hr after transfection by T7E1 assay and quantified using Fragment Analyzer System. The deletion (indel) frequencies in EMX1, AAVS and HPRT genes were quantified using T7E1 assay. Data for on-target mutations induced by RGEN:gRNA are reported as an average of 3 separate experiments.

Swiss mice = conditions: other tissues examined
Method: At 72 hours following injection, animals were sacrificed and tissues including lung, liver, brain, kidney, heart, spleen, blood, and pancreas were collected. Tissues were homogenized and CAS9 expression was analyzed by western blot on protein extract using antibody against CRISPR/Cas9 (Diagenode cat. No. C15200223) or by ELISA using Cas9 monoclonal antibody (SBI clone 7A9).

[4] = system: endogenous EMX1 and exogenous EGFP reporter genes in GFP-U2OS, EGFP-JURKAT cells; assay: Delivery of multiple RGEN/gRNA complexes: EMX1 and EGFP editing; assay type: cell-based, human
Method: RNAiMAX delivery was used as positive control. Cells were treated as described previously and CAS9-induced NHEJ analyzed 72 hr after transfection. […] The deletion (indel) frequency in the EMX1 gene was quantified using the T7E1 assay and loss of EGFP expression was monitored by flow cytometry. Data for on-target mutations induced by RGEN/gRNA are reported as an average of 3 separate experiments.

[5] = system: EGFP-U2OS, EGFP-HEK, EGFP-JURKAT cells; assay: Toxicity of CPP/CAS9/gRNA complexes (MTT assay); assay type: cell-based; conditions: three cell lines; concentrations up to 100 nM; 24 h
Method: The robust EGFP disruption observed in the three cell lines was found not to be the result of cellular toxicity. […] A total of 30,000 cells seeded in 24-well plates the day prior to transfection were incubated with increasing concentrations of CPP/CAS9/gRNA (complexed at a 10:1 or 20:1 molar ratio of CPP to preloaded CAS9/gRNA complex) ranging from 1 to 200 nM for 30 min prior to addition of medium to reach a final 10% concentration of FCS. Cytotoxic response was measured 24 hours later by colorimetric MTT assay (Sigma, Germany). For MTT assay, cell culture medium was removed and replaced with PBS containing 2.5 mg/ml MTT for 4 hours. Results correspond to the average of 3 separate experiments. […] Viability was reduced by less than 10% at 200 nM. In contrast, at […] for Lipofectamine 2000 or RNAiMAX, between 60-70% and 20-25% cell death was observed, depending on cell line. Moreover, both lipid methods appeared to be highly toxic on JURKAT cells, inducing 75% (lipofectamine 2000) or 45% (RNAiMAX) cell death.

[6] = system: Luciferase reporter gene in the liver; conditions: free ADGN-100a peptide
Method: At 72 hours post injection, animals were sacrificed and the following tissues were collected: liver, lung, kidney, spleen, and blood. Luciferase was quantified by fluorescence in the liver. Tissues were homogenized and CAS9 expression was analyzed by ELISA using Cas9 monoclonal antibody (SBI clone 7A9).

[7] = system: endogenous EMX1 gene in U2OS, JURKAT and K562 cells; assay: EMX1 gene editing from CPP delivery of CAS9/gRNA (T7E1 assay); assay type: cell-based, human
Method: RNAiMAX delivery was used as a positive control as it was previously reported to show better results than Lipofectamine 2000 (Zuris et al., 2015, supra). […] Cells were returned to the incubator for 72 hours.

[8] = system: EGFP reporter gene in EGFP-U2OS cells
Method: ADGN-100 was evaluated for cellular delivery of a plasmid encoding CAS9 and gRNA targeting a specific site in the exogenous EGFP gene reporter in U2OS cells (EGFP-U2OS).
Stock solutions of amphipathic peptides were prepared at 1 mg/mL in distilled water and sonicated for 10 min.
EGFP-U2OS cells containing a single integrated EGFP reporter gene were cultured in Dulbecco's Modified Eagle's Medium (DMEM), supplemented with 2 mM glutamine, 1% antibiotics (streptomycin 10,000 μg/mL, penicillin, 10,000 IU/mL) and 10% (w/v) foetal calf serum (FCS), at 37° C. in a humidified atmosphere containing 5% CO2. A total of 150,000 cells seeded in a 35 mm dish the day prior to transfection were grown to 50-60% confluence and overlaid with 200 μl of preformed complexes, incubated for 3-5 min, then 400 μl of DMEM was added. After 30 min incubation at 37° C., 1 mL of fresh DMEM containing 16% FCS was added to reach a final FCS concentration of 10%, without removing the overlay of CPP/CAS9-gRNA complexes. Cells were returned to the incubator for 72 hours.
CAS9-induced double-strand break formation was analyzed using flow cytometry by monitoring the level of EGFP expression. […] Lipofectamine 2000 delivery was used as positive control.

[9] = system: endogenous hPD1 gene in JURKAT and K562 cells; assay: hPD1 gene editing in T cell lines (T7E1 assay); assay type: cell-based, human
Method: CAS9 protein was preloaded with purified sgRNA at a molar ratio of 1:1 and incubated for 10 min prior to forming complexes with peptides.
5×10^6 cells were washed twice with DPBS by centrifuging at 800 rpm for 5 minutes and resuspended in 100 ^l transfection buffer, and then transferred into the electroporation cuvette. An optimized program selected for both high transfection and high efficiency on T cells was used. After electroporation, cells were resuspended in 500 ^l pre-warmed AIM-V medium containing 10% FBS and incubated at 37° C. in 5% CO2. The transfection efficiency was evaluated after 48 hr by flow cytometry or T7E1 assay.
RNAiMAX delivery method was used as positive control. Cells were either resuspended in or overlaid with 100 μl of preformed complexes, incubated for 3-5 min, and then 300 μl of DMEM was added. […] The indel frequency in the hPD1 gene was quantified using the T7E1 assay.

PCSK9 = assay: In vivo CAS9 mRNA/gRNA targeting PCSK9: serum PCSK9 (ELISA); design: species or system mouse
Method: Polyadenylated and capped CAS9 mRNA was obtained from ThermoFisher, and gRNA (5 μg) targeting PCSK9 Exon 1 was obtained from Eurogentec. […] Free CAS9 mRNA/gRNA was injected as a control.
Blood samples were collected by saphenous vein bleeds at multiple time points (day 3, 6, 10, and 21), collecting no more than 100 μl or 10% of total blood volume per week. Serum levels of PCSK9 were determined by ELISA using the Mouse Proprotein Convertase 9/PCSK9 Quantikine ELISA Kit (MPC-900, R&DSystems).

CC(C)C[C@H](NC(=O)[C@H](CCCNC(=N)N)NC(=O)[C@H](Cc1c[nH]c2ccccc12)NC(=O)[C@H](CCCNC(=N)N)NC(=O)[C@H](Cc1c[nH]c2ccccc12)NC(=O)CNC(=O)[C@H](C)NC(=O)[C@H](CO)NC(=O)[C@H](CCCNC(=N)N)NC(=O)[C@H](Cc1c[nH]c2ccccc12)NC(=O)[C@H](CCCCN)NC(=O)CCN)C(=O)N[C@@H](Cc1c[nH]c2ccccc12)C(=O)N[C@@H](CCCNC(=N)N)C(=O)N[C@H](C(=O)N[C@@H](CCCNC(=N)N)C(=O)N[C@@H](CO)C(=O)N[C@@H](Cc1c[nH]c2ccccc12)C(=O)N[C@@H](CO)C(=O)N[C@@H](CCCNC(=N)N)C(=O)O)C(C)C [ADGN-100a]
PI ([1]; Cas9:gRNA, molar ratio 10/1): 0.27 ± 0.1 | Size ([1]; Cas9:gRNA, molar ratio 10/1): 91 ± 5 nm | zeta ([1]; Cas9:gRNA, molar ratio 10/1): 5.3±1.0 MV and 5.3 ± 0.7 MV | PI ([1]; Cas9:gRNA, molar ratio 20/1): 0.28 ± 0.1 | Size ([1]; Cas9:gRNA, molar ratio 20/1): 87 ± 6 nm | zeta ([1]; Cas9:gRNA, molar ratio 20/1): 4.8±0.3 MV | Pt ([1]; Cas9, molar ratio 10/1): 0.25 ± 0.1 | zeta ([1]; Cas9, molar ratio 10/1): 6.0±0.8 mV | Size ([1]; Cas9, molar ratio 10/1, 0.9% NaCl): 82 ± 5 nm | Pt ([1]; Cas9, molar ratio 20/1): 0.21 ± 0.1 | Size ([1]; Cas9, molar ratio 20/1): 78 ± 7 nm | zeta ([1]; Cas9, molar ratio 20/1): 7.2±1 mV | formation of stable nanoparticles ([1]; with CAS9 and CAS9:gRNA complex, molar ratio 10:1 or 20:1): able to form stable nanoparticles | Mean diameter ([1]; with CAS9 and CAS9:gRNA, molar ratio 10:1 or 20:1): ~80 nm | mean indel frequencies [2]: about 30% | Mean indel Frequency ± S.E.M ([3]; H9, AAVS): 60 ± 5% | Mean indel Frequency ± S.E.M ([3]; H9, EMX1): 61 ± 6% | Mean indel Frequency ± S.E.M ([3]; H9, HPRT): 61 ± 5% | Mean indel Frequency ± S.E.M ([3]; U2OS, AAVS): 72 ± 4% | Mean indel Frequency ± S.E.M ([3]; U2OS, EMX1, 20 nM each complex): 78 ± 7% | Mean indel Frequency ± S.E.M ([3]; U2OS, HPRT): 78 ± 6% | CAS9 protein expression (Swiss mice): No significant increase | Mean indel Frequency ± S.E.M ([4]; JURKAT, EGFP): 78 ± 4% | Mean indel Frequency ± S.E.M ([4]; JURKAT, EMX1): 76 ± 7% | Mean indel Frequency ± S.E.M ([4]; U2OS, EGFP, 25 nM each complex): 77 ± 6% | Mean indel Frequency ± S.E.M ([4]; U2OS, EMX1): 72 ± 8% | toxicity [5]: no toxicity | change in luciferase expression [6]: no change in luciferase expression | Mean indel Frequency ± S.E.M ([7]; JURICAT, CAS9/sgRNA 25 nM): 65% and 65 ± 5% | Mean indel Frequency ± S.E.M ([7]; JURKAT, CAS9/sgRNA 50 nM): 68 ± 6% | Mean indel Frequency ± S.E.M ([7]; K562, CAS9/sgRNA 25 nM): 71% and 71 ± 8% | Mean indel Frequency ± S.E.M ([7]; K562, CAS9/sgRNA 50 nM): 74 ± 4% | Mean indel Frequency ± S.E.M ([7]; U2OS, CAS9/sgRNA 25 nM, 20:1): 67% and 67 ± 5% | Mean indel Frequency ± S.E.M ([7]; U2OS, CAS9/sgRNA 50 nM): 72 ± 8% | decrease in EGFP expression ([8]; molar ratio 10:1 of ADGN-100a to each nucleic acid): 23% | decrease in EGFP expression ([8]; molar ratio 20:1): 38% | Mean indel Frequency ± s.e.m ([9]; JURKAT, CAS9/sgRNA 2.5 μg/5 μg): 70 ± 5% | Mean indel Frequency ± s.e.m ([9]; JURKAT, CAS9/sgRNA 5 μg/10 μg): 72% | Mean indel Frequency ± s.e.m ([9]; JURKAT, CAS9/sgRNA 5 μg/10 μg, listed as ADGN400a): 72 ± 2% | Mean indel Frequency ± s.e.m ([9]; K562, CAS9/sgRNA 2.5 μg/5 μg): 68 ± 2% | Mean indel Frequency ± s.e.m ([9]; K562, CAS9/sgRNA 5 μg/10 μg): 71% | Mean indel Frequency ± s.e.m ([9]; K562, CAS9/sgRNA 5 μg/10 μg, listed as ADGN400a): 71 ± 5% | decrease of serum levels of PSCK9 (PCSK9; day 1, CAS9 mRNA 5 μg/gRNA 5 μg single i.v.): 51% | decrease of serum levels of PSCK9 (PCSK9; day 3): 62% | decrease of serum levels of PSCK9 (PCSK9; day 6): 69% | decrease of serum levels of PSCK9 (PCSK9; day 10): 65% | decrease of serum levels of PSCK9 (PCSK9; day 14): 65% | decrease of serum levels of PSCK9 (PCSK9; day 20): 60%
